The numbers were not newly measured in patent US8905760B2, “Methods and systems for progressively treating and controlling oral periopathogens causing systemic inflammations” (priority 2008, dated 2014), which cites them from elsewhere.

Structures can show the parent of a compound that is named as a salt.

For this data set the following is noted: IPT group: standard periodontal therapy with adjunctive local delivery of minocycline-HCl (Arestin); N=20; P<0.0001, t test.

As for `CN(C)c1ccc(O)c2c1C[C@H]1C[C@H]3[C@H](N(C)C)C(O)=C(C(N)=O)C(=O)[C@@]3(O)C(O)=C1C2=O` [minocycline-HCl], the “reduction of periodontal lesions after therapy (mean difference)” value is reported as 60±23.
